Source: US4382088A, “4,7-Dihydro-4,7-dioxi-1H-cyclohepta[b]pyridine derivatives” (Ayerst, McKenna & Harrison, Inc., priority 1981, dated 1983)

Key:
aldose reductase [1] = settings: Dvornik et al. 1973; Peterson et al. 1979; cited from earlier work
aldose reductase [2] = molecular target: T1, aldose reductase (Bos taurus, UniProt P16116); assay: in vitro aldose reductase inhibition (modified Hayman and Kinoshita procedure, enzyme from bovine lens); assay type: biochemical; settings: for inhibition at 10 µM: 10^-5 molar, read-out: % Inhibition at Different Molar Concentrations (in vitro), 10^-5; for inhibition at 1 µM: 10^-6 molar, read-out: % Inhibition at Different Molar Concentrations (in vitro), 10^-6; for inhibition at 0.1 µM: 10^-7 molar, read-out: % Inhibition at Different Molar Concentrations (in vitro), 10^-7
T1 construct: preparation of the enzyme from bovine lens; from tissue; host or cells: bovine lens
Method: In the present case the procedure of Hayman and Kinoshita is modified in that the final chromatography step is omitted in the preparation of the enzyme from bovine lens.
The following results were obtained when the foregoing listed compounds of formula I were evaluated in the above in vitro test.

[3] = hygroscopicity of analytical sample; assay type: physicochemical; settings: analytical sample dried under reduced pressure at 140° C.
Method: 3-(Ethoxycarbonyl)-4,7-dihydro-6-methoxy-4,7-dioxo-1H-cyclohepta[b]pyridine-1-acetic acid ethyl ester (2.5 g), described in example 5, was heated at reflux in 15% (w/v) aqueous HCl for 2 hr. The resulting precipitate was collected, washed with water and acetone, and recrystallized from water to give 1.8 g of the title compound; mp 272°-274° C.; nmr (DMSO-d6) δ3.95 (s, 3H), 5.5 (s, 2H), 7.28 & 7.75 (2d, 2H), 7.95 (s, 1H), 9.0 (1H, s); ir (Nujol*) 2900, 1700, 1565, 1265, 1165 cm^-1; uv λmax (MeOH) 347 nm (ε11,630), 306 (10,470), 266 (21,365), 249 (32,290). An analytical sample dried under reduced pressure at 140° C. was hygroscopic; Anal Calcd for C14 H11 NO7 : C, 55.09% H, 3.63% N, 4.59%; Found: C, 54.41% H, 3.60% N, 4.55%.

| inhibition at 10 µM (aldose reductase [2]) [%] | inhibition at 1 µM (aldose reductase [2]) [%] | inhibition at 0.1 µM (aldose reductase [2]) [%] | hygroscopicity [3] | SMILES | aldose reductase inhibition reported in the literature, in words (aldose reductase [1]) |
| --- | --- | --- | --- | --- | --- |
|  |  |  |  | O=C(O)CN1C(=O)c2cccc3cccc(c23)C1=O [1,3-Dioxo-1H-benz[de]isoquinoline-2(3H)-acetic acid] | effective inhibitor of aldose reductase |
| 40 |  |  |  | CCOC(=O)COc1cc2c(=O)c(C(=O)OCC)cn(CC(=O)OCC)c2ccc1=O [Example 5 (R^3 = OCH2 COOC2 H5), 3-(ethoxycarbonyl)-6-[(2-ethoxy-2-oxoethyl)oxy]-4,7-dihydro-4,7-dioxo-1H-cyclohepta[b]pyridine-1-acetic acid ethyl ester] |  |
| 97 | 88 | 31 |  | O=C(O)COc1cc2c(=O)c(C(=O)O)cn(CC(=O)O)c2ccc1=O [Example 7 (R^3 = OCH2 COOH), 3-carboxy-6-[(carboxymethyl)oxy]-4,7-dihydro-4,7-dioxo-1H-cyclohepta[b]pyridine-1-acetic acid monohydrate] |  |
| 89 | 79 | 30 | hygroscopic | COc1cc2c(=O)c(C(=O)O)cn(CC(=O)O)c2ccc1=O [Example 7 (R^3 = OCH3), 3-Carboxy-4,7-dihydro-6-methoxy-4,7-dioxo-1H-cyclohepta[b]pyridine-1-aceticAcid] |  |
| 88 | 79 | 37 |  | O=C(O)Cn1cc(C(=O)O)c(=O)c2cc(OCc3ccccc3)c(=O)ccc21 [Example 8, 6-Benzyloxy-3-carboxy-4,7-dihydro-4,7-dioxo-1H-cyclohepta[b]pyridine-1-acetic Acid] |  |
|  |  |  |  | O=C1NC(=O)[C@@]2(CCOc3ccc(F)cc32)N1 [sorbinil, (S)-6-Fluoro-2,3-dihydrospiro(4H-1-benzopyran-4,4'-imidazolidine)-2',5'-dione] | aldose reductase inhibiting properties |
